± gives the uncertainty stated by the source.
Tests used:
Conditions in all cases: 18 h
HEK293T-Rex XBP1-RLuc [1] = test: EC50 for XBP1-RLuc reporter activation
Experimental: (§1)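 Dose-response of hit compounds in HEK293T-Rex cells stably expressing ERSE-FLuc or XBP1-RLuc reporters, 18 hr treatment, 1536-well; luminescence normalised to 500 nM thapsigargin (100%) and DMSO (0%), fitted to give EC50 (M) and maximal activation; '>' marks EC50 above the top tested dose (~17 µM).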

HEK293T-Rex ERSE-FLuc [2] = test: EC50 for ERSE-FLuc reporter activation
Experimental: as §1

HEK293T-Rex ERSE-FLuc [3] = test: maximal ERSE-FLuc activation from dose-response fit, relative to thapsigargin (% of thapsigargin); higher = stronger activation
Experimental: as §1

HEK293T-Rex XBP1-RLuc [4] = test: maximal XBP1-RLuc activation from dose-response fit, relative to thapsigargin (% of thapsigargin); higher = stronger activation
Experimental: as §1

Compound	EC50 for XBP1-RLuc reporter activation (HEK293T-Rex XBP1-RLuc [1]) [µM]	EC50 for ERSE-FLuc reporter activation (HEK293T-Rex ERSE-FLuc [2]) [µM]	maximal ERSE-FLuc activation (HEK293T-Rex ERSE-FLuc [3])	maximal XBP1-RLuc activation (HEK293T-Rex XBP1-RLuc [4])
O=C(N/N=C\c1ccccc1[N+](=O)[O-])c1[nH]nc2c1CCc1ccccc1-2	> 16.9	> 16.9	23 ± 4.3	5.31 ± 2.3
Oc1ccc(-c2csc(-c3ccccc3)n2)cc1O	11.3	5.39	65.2 ± 8.8	65.9 ± 7.2
CN(C)c1ccc(/C=C(/C#N)C(=O)Nc2ccc(O)cc2)cc1	> 16.9	> 16.9	29.9 ± 4.7	31 ± 2.4
COc1cccc(C(=O)/C=C/Nc2cc(C)ccc2O)c1	6.99	4	229 ± 0.77	72.5 ± 3.2
CNC(=O)c1ccccc1Nc1cc(NC(=O)Cc2ccc(F)c(F)c2)ncc1C(F)(F)F	> 16.9	> 16.9	3.28 ± 7.2	2.4 ± 1.1
COc1ccc(NC(=O)/C(Cl)=C\c2ccccc2)cc1	> 16.9	> 16.9	22.2 ± 2.3	4.41 ± 5
COc1cccc(/C=N\NC(=O)c2n[nH]c3c2CCC3)c1	> 16.6	> 16.6	25.8 ± 1.9	4.03 ± 2.5
N#Cc1c(NC(=O)/C=C/c2ccco2)sc2c1CCCC2	> 17	> 17	22.8 ± 6.6	5.59 ± 3
COc1ccc2c(Cl)c(C(=O)Nc3ccccc3C(N)=O)sc2c1	> 16.9	> 16.9	21.3 ± 1.3	6.81 ± 1.3
CCCNc1ccnc(N2CCc3ccccc3C2)n1	> 17.7	> 17.7	12 ± 7.5	1.68 ± 0.28
Cc1cc(C)nc(/N=C(\N)Nc2ccc(OCc3ccc(Cl)cc3)cc2)n1	2.03	> 14	47.3 ± 7.6	88.2 ± 3.4
O=C(NCCc1ccc(O)cc1)c1ccc2nc(-c3csc4ccccc34)sc2c1	13.3	11.6	99.4 ± 20	105 ± 13
O=C(CCCN1CCC2(CC1)C(=O)N(Cc1cccc(F)c1)CN2c1ccccc1)c1ccc(F)cc1	4.02	4.46	187 ± 19	214 ± 7.7
COc1ccc(/C=C/c2ccc3cccc(OC(C)=O)c3n2)cc1OC(C)=O	> 16.9	> 16.9	25.7 ± 5.6	15 ± 2.1
Fc1ccc(-c2nnc3ccc(N4CCN(c5ccccn5)CC4)nn23)cc1	> 16.9	> 16.9	5.1 ± 4.1	7.7 ± 2.6
COc1ccccc1/C=N/Nc1nc(-c2ccccc2)cc(=O)[nH]1	> 16.9	> 16.9	28.3 ± 0.49	5.2 ± 9.3
O=C1N/C(=C/c2ccc(O)cc2)C(=O)N1c1cccc(Cl)c1	3.04	3.19	85.8 ± 20	100 ± 3
CCCCNC(=O)c1cc(-c2ccc(F)cc2)on1	> 16.9	12.2	68.7 ± 8.5	9.22 ± 4.7
N#Cc1c(NC(=O)c2ccc(Br)cc2)sc2c1CCCC2	> 12.7	> 12.7	17.3 ± 2.2	1.87 ± 3.4
O=C(Nc1ccccc1O)c1cc2ccccc2o1	> 21	> 21	40.6 ± 8.2	20.1 ± 3.2
NN1C(=O)/C(=C/c2ccc(O)c(O)c2)SC1=S	> 16.9	11.7	53.7 ± 2.2	33.2 ± 4.3
C=CCNC(=O)c1cc(-c2ccc(F)cc2)on1	> 16.9	16.7	50.2 ± 7.4	6.35 ± 5.3

Compound	EC50 for XBP1-RLuc reporter activation (HEK293T-Rex XBP1-RLuc [1]) [µM]	EC50 for ERSE-FLuc reporter activation (HEK293T-Rex ERSE-FLuc [2]) [µM]	maximal ERSE-FLuc activation (HEK293T-Rex ERSE-FLuc [3])	maximal XBP1-RLuc activation (HEK293T-Rex XBP1-RLuc [4])
COc1cn(-c2ccc(F)cc2)nc1C(=O)Nc1ccccc1SC	> 16.9	6.64	80.8 ± 17	40.2 ± 0.22
Cc1ccc(NC(=S)NC(=O)C(=O)Nc2ccccc2)cc1	> 16.9	> 16.9	6.38 ± 2.8	2.05 ± 0.91
CNc1ccc2oc(C[C@H]3O[C@@]4(CC[C@H]3C)O[C@H]([C@H](C)C(=O)c3ccc[nH]3)[C@H](C)C[C@H]4C)nc2c1C(=O)O	4.49	2.39	56.9 ± 16	91.4 ± 5.9
Cc1ccc(O)c(-c2cc(-c3ccc(F)cc3)n[nH]2)c1	> 19	10.5	71.4 ± 16	17.2 ± 4
Cc1ccc(/C=C(\C#N)C(=O)Nc2cccc(Cl)c2)o1	> 16.9	> 16.9	14.7 ± 3.1	3.54 ± 1.9
CC(C)CC(c1nnnn1C1CCCC1)N1CCN(C(=O)c2ccco2)CC1 (configuration not stated)	> 16.9	> 16.9	14.3 ± 1.5	8.89 ± 0.66
O=C(Nc1ccc2nc(NC(=O)C3CCCCC3)sc2c1)C1CCCCC1	> 10.2	> 10.2	13.9 ± 2.4	5.73 ± 2.7
CC(C)c1ccc(/C=N\NC(=O)c2ccccc2)cc1	> 16.9	> 16.9	19.3 ± 9.1	17.7 ± 5.7
Cc1nn(-c2ccc(F)cc2)c2ncc(C(=O)NCc3ccco3)c(Cl)c12	12.6	15.3	63.1 ± 4.8	151 ± 6.8
O=C1c2cc(O)ccc2-c2ccc(O)cc21	8.87	8.44	65.1 ± 18	73.2 ± 6.5
Cc1ccc(O)c(NC(=O)c2cc(-c3cccs3)on2)c1	> 16.9	2.78	126 ± 5.9	32.4 ± 6.1
N#Cc1c(NC(=O)c2ccc3ncsc3c2)sc2c1CCC2	> 16.6	> 16.6	22.2 ± 2.5	4.53 ± 1.1
N#C/C(=C\c1ccc(O)c(O)c1)c1nc2ccccc2[nH]1	> 16.9	> 16.9	37.6 ± 12	25.6 ± 1.6
Cc1ccc(NC(=O)/C=C/c2ccco2)nc1	> 16.9	> 16.9	17.5 ± 3.4	7.43 ± 1.4
Oc1ccc(-c2csc(-c3cccnc3)n2)cc1O	12.8	7.5	71.5 ± 11	80.1 ± 5.1
COc1ccc(/C=C(\C#N)c2nc(-c3ccco3)cs2)cc1O	> 16.7	> 16.7	32.9 ± 2.9	14.5 ± 4.2
O=C(N/N=C/c1cccc(Cl)c1Cl)c1ccccc1O	> 16.9	> 16.9	6.19 ± 0.61	2.04 ± 0.65
COc1ccc2oc(=Nc3cc(F)ccc3F)c(C(N)=O)cc2c1	> 14.7	> 14.7	19.1 ± 2.2	1.95 ± 1.5
O=C(Nc1ccccc1O)c1ccc(C(=O)c2ccccc2)cc1	> 16.8	7.47	103 ± 3.3	15.1 ± 5.4
Cc1cccc2c1[nH]c1nc(N/N=C\c3c[nH]c4ccccc34)nnc12	> 16.9	> 16.9	41.7 ± 12	32.4 ± 5.6
Cc1ccc2nc(NC(=O)c3cccc4ccccc34)sc2c1	> 15.1	> 15.1	38.8 ± 5.3	11.2 ± 1.2

— the supplement of paper PMC4954754
